The test system of one series is β-CD-TMGMV. The series can be described thus: Doxorubicin competition (displacement) assay for loading onto β-CD-TMGMV. It is filed as binding. As to conditions: competitor at 1000 eq, overnight at 4° C.
Series [1] relates to TMGMV. The series can be described thus: Quantification of loaded AI in TMGMV by HPLC. It counts as physicochemical, Tobacco Mild Green Mosaic Virus. As to conditions: for Detected in sample / Molecules per CP / Molecules per virion: HPLC. On the procedure: (§1) Loading of AI into TMGMV via the “pH method” was performed. TMGMV at a concentration of 1 mg mL^−1 in 10 mM KP buffer at pH 7.5 was kept for 10 days at 4° C. The following AIs were used: fluopyram and clothianidin, (BASF, Berkeley, CA, USA), rifampicin and ivermectin (BioVision; Milpitas, CA, USA). Cy5 (Lumiprobe; Cockeysville, MD, USA) and doxorubicin (ApexBio; Houston, TX, USA) were also studied as proof of concept (fluorescent molecule and cancer chemotherapy). The AI was added to TMGMV by adding an excess of 10:1 AI:coat protein (CP; each TMGMV rod is assembled from ˜2,100 identical CPs) every day until a ratio of 100:1 was reached. During this process the reaction was kept mixing on a rotary shaker. 1 mL aliquots were obtained each day for further analysis.
After AI loading, the aliquots were spin-filtered using 100K molecular weight cut-off 0.5 mL filters (MilliporeSigma, Burlington, MA, USA). 200 μL of the aliquot and 250 μL of KP solution were added and then centrifuged at 16,160×g for 5 minutes at 4° C., the flow-through was discarded, and then 450 μL of KP was added and centrifuged again, this step was repeated 3 times. After the third centrifugation, the filter was inverted in a new tube and centrifuged at 1000×g for 2 minutes, to recover the supernatant and carry out the subsequent characterization.
(§2) Loading of AI into TMGMV via the “DMSO method” was performed. TMGMV in 10 mM KP buffer (pH 7.2) was diluted to 5 mg mL-1 in 2 mL of buffer and transferred to a 25 mL beaker and magnetically stirred at 300 rpm at room temperature. A solution of DMSO and 10 mM KP was added dropwise to dilute the solution to a 20% (v/v) concentration of DMSO and 2 mg mL-1 of TMGMV. Aliquots of the AIs were added dropwise to the solution to prevent precipitation. The solutions were left to stir at room temperature for 24 hours. The samples were collected and spin filtered as described above before being stored at 4° C.
For HPLC, AI was extracted from TMGMV. In brief, the concentration of TMGMV samples was adjusted to 1.2 mg mL-1 in KP. The solution was diluted 4-fold into a 1:1 acetonitrile/:methanol mixture and vortexed for 30 seconds. The solution was centrifuged at 10,000×g for 10 minutes at 4° C. and the organic phase (bottom fraction) was collected and transferred to an HPLC 2 mL glass screw top vial (SureSTART, Thermo Scientific, Waltham, MA, USA).
After a 10-fold dilution in acetonitrile, the extracted samples were injected at 500 μL and run on 5 μm C18 column (20×100 mm) using a Shimadzu LC-40 HPLC system (Columbia, MD, USA). The method was run at 0.5 mL min-1 in a gradient of acetonitrile and 0.02% (v/v) phosphoric acid for 15 minutes per sample. A photodiode array was used to collect absorbance values at 280 nm (fluopyram), 269 nm (clothianidin), 225 nm (ivermectin), and 330 nm (rifampicin). The absorbance values were fitted to a standard curve to identify sample concentration with N=3.

The subject of series [2] is TMGMV. As to the kind of experiment: TEM/ImageJ width of TMGMV infused with AI by partial dissociation (breathing), Example 3. It is filed as physicochemical, Tobacco Mild Green Mosaic Virus. The following applies: pH 7.5, 5 days, 500:1 equivalence ratio; TEM; control 18 nm. On the procedure:
TMGMV at a concentration of 5 mg mL^−1 in KP buffer at pH 7.5 was kept for 5 days at 4° C. Addition of the target AI to the solution was done every 24 h until reaching a 500:1 equivalence ratio and left mixing on a rotary shaker. Afterwards, the solution was centrifuged at 50,000 rpm in the tabletop ultracentrifuge (Beckman Optima MAX-XP with TLA-55 rotor) for 1 hour on a sucrose cushion (30% w/v). The viral pellet was then resuspended in 10 mM KP pH 7 overnight at 4° C. on a rotary shaker. After total resuspension, the solution was dialyzed for 48 h to remove excess (non-entrapped) AI.
Samples were diluted to the concentration of 0.05 mg mL^−1 and absorbed onto carbon-coated TEM grids (Electron Microscopy Sciences). The grids were then washed three times with pure water. Then, grids were stained by 2% (w/v) uranyl acetate for 2 min for imaging. TEM was conducted using a FEI Tecnai F30 transmission electron microscope operated at 300 kV.
Experiments were conducted to load pesticides into TMGMV by strategically altering the pH. Without being bound by theory, this entraps Als through the formation of “pockets” between coat proteins (CPs). Without being bound by theory, the rationale is that by increasing the pH of the buffer, the virus will start to dissociate and hydrophobic pockets will get created between the virion's coat proteins. AIs are then added to interact with the virus particles and then the pH is decreased to promote particles' self-assembly and entrapment of AI on the hydrophobic pockets (see schematic of FIG. 7). As discussed above, TMGMV at a concentration of 5 mg mL-1 in KP buffer at pH 7.5 was kept for at 4° C. for 5 days, and the target AI was added to the solution every 24 h until reaching a 500:1 equivalence ratio. Afterwards, the solution was centrifuged at 50,000 rpm for 1 hour on a sucrose cushion (30% w/v). The viral pellet was then resuspended in 10 mM KP pH 7 overnight at 4° C., and after total resuspension, the solution was dialyzed for 48 h to remove excess (non-entrapped) AI. Samples were then observed at TEM and analyzed using ImageJ.
To determine the change in width (breathing/infusion) of the nanoparticles, the width of sections of 100 nm in length of nanoparticles (as shown in the micrography of FIG. 8) was measured. This was done to standardize the measurements and determine the change in width. At least 5 different sections were measured per micrography, and at least 30 sections were measured in total per sample.

The conditions of series [3]: cited from earlier work.
For series [4], the system named is TMGMV. As to the kind of experiment: Quantitative TEM width analysis of AI-loaded TMGMV prepared via pH and DMSO methods, Example 6. It counts as physicochemical, Tobacco Mild Green Mosaic Virus. The following applies: negative-stain TEM, native 15.7 nm; for maximum width of AI-loaded TMGMV: pH and DMSO methods. Here is the method: as §1, §2
TMGMV samples were diluted to a concentration of 0.05 mg mL-1 and absorbed onto carbon-coated TEM grids (Electron Microscopy Sciences, Hatfield, PA, USA). The grids were then washed three times with pure water. Then, grids were stained by 2% (w/v) uranyl acetate for 90 seconds. TEM was conducted using a FEI Tecnai F30 transmission electron microscope operated at 300 kV. Image analysis was performed using ImageJ software (https://imagej.nih.gov/ij/download.html). To determine the change in width of the nanoparticles, the width of sections of 100 nm in length was measured for standardization purposes. Five different sections were measured per micrography and 30 of them in total per sample. Subsequently, for the complete particle, the length, the perimeter and the area were measured, to later calculate the average width from the perimeter.
TEM imaging and quantitative TEM imaging analysis of the AI-loaded TMGMV nanoparticles prepared by the pH method and the DMSO method was performed. […] To gain insights into the degree of structural changes, quantitative TEM image analysis was performed comparing native vs. the AI-laden TMGMV. Based on the negative stain, native virions were 15.7 nm in width in average (±1.9 nm), which is an underestimation to native TMGMV of 18 nm. This may be due to the uranyl acetate negative staining yielding a heavy shadow on the borders of the virion, apparently reducing its width. While there was no statistical significance between the controls that underwent both methodologies (FIG. 27), for each compound the increment (in comparison to native TMGMV) was different, as well as between methodologies (FIG. 17A).

Series [5] deals with TMGMV. As to the kind of experiment: Size exclusion chromatography with absorbance (Beer-Lambert) loading determination. It counts as physicochemical, Tobacco Mild Green Mosaic Virus. The following applies: SEC absorbance 480 nm / 647 nm, Beer-Lambert law. On the procedure: TMGMV samples (500 μL at 0.5 mg/mL) were analyzed using a Superose6 Increase 100 GL column and an AKTA Pure25 chromatography system (GE Healthcare, Chicago, Il, USA) using a flow rate 0.5 mL/min in 10 mM KP (pH 7.4). […]
Size exclusion chromatography (SEC) was performed to further verify structural integrity of the AI-laden TMGMV particles during post-processing and purification.
On the technique in general: Size exclusion chromatography separates by hydrodynamic size, large species first.

The mark [6] stands for this setting: DMSO method (20% v/v, 24 hours).

Experimental for β-CD-TMGMV: To assess loading of pesticides to β-CD-TMGMV, competition assays were completed between Doxorubicin (ApexBio) and the target molecules. Samples of 100 μL volume were prepared in a 96-well plate (Costar). For sample wells, 0.0825 mg of β-CD-conjugated TMGMV in KP buffer were added to the wells, in addition with doxorubicin at 10 eqβ-CD-TMIGMV (molar equivalents to β-CD-conjugated TMGMV).
Three control conditions were utilized: 1 eq TMGMV, 575 eq β-CD, and 1 eq TMGMV with 575 eq β-CD (non-conjugated). These control wells also received doxorubicin at 10 eq. The plate was incubated overnight at 4° C. on a plate rocker (Fisher). Fluorescence top readings were conducted on the plate (excitation 470 nm, emission 595 nm, 25 flashes) via UV-Vis Plate Reader (Tecan infinite 200Pro). […] Following a repeat overnight incubation at 4° C. on a plate rocker (Fisher), fluorescent reading was repeated as before.
Samples of 100 μL volume were prepared in a 96-well plate (Costar). For sample wells, 0.0825 mg of β-CD-conjugated TMGMV in KP buffer were added to the wells, in addition with doxorubicin at 10 eq (molar equivalents to β-CD-conjugated TMGMV). […] Fluorescence top readings were then conducted on the plate (excitation 470 nm, emission 595 nm, 25 flashes) via UV-Vis Plate Reader (Tecan infinite 200Pro). […] The fluorescence was then read on the plate reader as described before. […]

What is called logP is a log measure of how a compound divides between an organic and an aqueous phase. On to `CN/C(=N\[N+](=O)[O-])NCc1cnc(Cl)s1` [Clothianidin, clothianidin], for which the “doxorubicin initially bound to β-CD-TMGMV displaced” value with β-CD-TMGMV was found to be 17.60%. For the same molecule, the “less loading using DMSO method vs pH method” value in the series on TMGMV [1] (24 hour DMSO vs 10-day pH) is “about 10%”. In the series with TMGMV [1] (setting [6]), the Detected in sample came out at 2.06 µg/mL, the “Molecules per CP” value worked out at 0.47 and the Molecules per virion is given as 995. Also, in the series on TMGMV [1] (pH method (pH 7.5, 10 days)), the Detected in sample worked out at 2.29 µg/mL, the “Molecules per CP” value was 0.52 and the Molecules per virion turned out to be 1107.55. In the series with TMGMV [2], the “average width of infused TMGMV” value stood at 26 nm and the “increase in width vs native TMGMV control” value (“increase in width” for short) turned out to be 38%. Further, the logP in series [3] is listed as 1.3. Besides, in the series with TMGMV [4], the “width increase compared to negatively-stained native TMGMV” value (from here on “width increase”) is 65%.

On to `COc1cccc2c1C(=O)c1c(O)c3c(c(O)c1C2=O)C[C@@](O)(C(=O)CO)C[C@@H]3O[C@H]1C[C@H](N)[C@H](O)[C@H](C)O1` [Doxorubicin, doxorubicin], for which, in the series on TMGMV [2], the “average width of infused TMGMV” value was 35 nm and the “increase in width” value is given as 89%. Besides, in the series with TMGMV [5], the “loading, molecules per TMGMV” value is on record as approximately 615. For the same molecule, in series [3], the logP was 0.02.

As for `O=C(NCCc1ncc(C(F)(F)F)cc1Cl)c1ccccc1C(F)(F)F` [Fluopyram, fluopyram], the “doxorubicin initially bound to β-CD-TMGMV displaced” value with β-CD-TMGMV is listed as 18.34%. The “increase in loading using DMSO method vs pH method” value in the series with TMGMV [1] (24 hour DMSO vs 10-day pH) is given as 11.7 fold. Further, in the series with TMGMV [1] (setting [6]), the Detected in sample came to 0.61 µg/mL, the “Molecules per CP” value was found to be 0.087 and the Molecules per virion amounted to 185.59. Moreover, in the series on TMGMV [1] (pH method (pH 7.5, 10 days)), the Detected in sample was found to be 0.05 µg/mL and the “Molecules per CP” value came to 0.007. In the series on TMGMV [2], the “average width of infused TMGMV” value was determined as 22 nm and the “increase in width” value was found to be 21%. Besides, the logP in series [3] was 3.33. Further, in the series on TMGMV [4], the “width increase” value is recorded as 14% and the “maximum width of AI-loaded TMGMV” value is given as 18 nm.

For the molecule `CO[C@H]1/C=C/O[C@@]2(C)Oc3c(C)c(O)c4c(O)c(c(/C=N/N5CCN(C)CC5)c(O)c4c3C2=O)NC(=O)/C(C)=C\C=C\[C@H](C)[C@H](O)[C@@H](C)[C@@H](O)[C@@H](C)[C@H](OC(C)=O)[C@@H]1C` [Rifampicin, rifampicin], the logP in series [3] is 2.4.

As for cyanine5 [Cyanine 5], in the series on TMGMV [5], the “loading, molecules per TMGMV” value is given as approximately 80. Further, in series [3], the logP is listed as 3.84.

ivermectin: the “increase in loading using DMSO method vs pH method” value in the series with TMGMV [1] (24 hour DMSO vs 10-day pH) is reported as 21.3 fold. In addition, in the series with TMGMV [1] (setting [6]), the Detected in sample came to 0.44 µg/mL, the “Molecules per CP” value amounted to 0.029 and the Molecules per virion came to 61.63. In the series on TMGMV [1] (pH method (pH 7.5, 10 days)), the Detected in sample stood at 0.02 µg/mL, the “Molecules per CP” value is on record as 0.001 and the Molecules per virion is on record as 2.89. For the same molecule, in series [3], the logP is reported as 4.4. Besides, in the series with TMGMV [4], the “width increase” value is listed as 46% and the “maximum width of AI-loaded TMGMV” value is on record as 23 nm.

These data come from patent US20250312289A1, “METHODS AND COMPOSITIONS COMPRISING TOBACCO MILD GREEN MOSAIC VIRUS (TMGMV)” (priority 2022, published 2025).
